Test results from the NIST ThermoML archive (doi:10.1016/j.jct.2014.07.018).
Numbers after ± are expanded uncertainties.

Assay: molar heat capacity at constant pressure
Settings: 101.33 kPa, Vacuum adiabatic calorimetry

Which results are given for `CCCCn1cc[n+](C)c1.[I-]` [1-butyl-3-methylimidazolium iodide]?
molar heat capacity at constant pressure (239.7 K, Liquid): 291.7 ± 1.2 J/K/mol; molar heat capacity at constant pressure (240 K, Crystal): 206.3 ± 0.9 J/K/mol; molar heat capacity at constant pressure (240 K, Liquid): 291.7 ± 1.3 J/K/mol; molar heat capacity at constant pressure (240.03 K, Crystal): 206.3 ± 0.9 J/K/mol; molar heat capacity at constant pressure (240.46 K, Liquid): 291.9 ± 1.2 J/K/mol; molar heat capacity at constant pressure (240.67 K, Crystal): 206.7 ± 0.9 J/K/mol; molar heat capacity at constant pressure (240.69 K, Liquid): 291.9 ± 1.2 J/K/mol; molar heat capacity at constant pressure (241.59 K, Crystal): 207.5 ± 0.9 J/K/mol; molar heat capacity at constant pressure (241.7 K, Liquid): 292.2 ± 1.2 J/K/mol; molar heat capacity at constant pressure (241.85 K, Liquid): 292.2 ± 1.2 J/K/mol; molar heat capacity at constant pressure (242.01 K, Crystal): 208 ± 0.9 J/K/mol; molar heat capacity at constant pressure (242.65 K, Crystal): 208.4 ± 0.9 J/K/mol; molar heat capacity at constant pressure (242.68 K, Liquid): 292.5 ± 1.2 J/K/mol; molar heat capacity at constant pressure (243.58 K, Crystal): 209.1 ± 0.9 J/K/mol; molar heat capacity at constant pressure (243.69 K, Liquid): 292.7 ± 1.2 J/K/mol; molar heat capacity at constant pressure (243.99 K, Crystal): 209.6 ± 0.9 J/K/mol; molar heat capacity at constant pressure (244.04 K, Liquid): 292.7 ± 1.2 J/K/mol; molar heat capacity at constant pressure (244.63 K, Crystal): 210 ± 0.9 J/K/mol; molar heat capacity at constant pressure (244.67 K, Liquid): 293 ± 1.2 J/K/mol; molar heat capacity at constant pressure (245.57 K, Crystal): 210.8 ± 0.9 J/K/mol; molar heat capacity at constant pressure (245.96 K, Crystal): 211.2 ± 0.9 J/K/mol; molar heat capacity at constant pressure (246.6 K, Crystal): 211.6 ± 0.9 J/K/mol; molar heat capacity at constant pressure (247.55 K, Crystal): 212.5 ± 0.9 J/K/mol; molar heat capacity at constant pressure (247.93 K, Crystal): 212.9 ± 0.9 J/K/mol; molar heat capacity at constant pressure (248.56 K, Crystal): 213.4 ± 0.9 J/K/mol; molar heat capacity at constant pressure (249.54 K, Crystal): 214.3 ± 0.9 J/K/mol; molar heat capacity at constant pressure (249.7 K, Liquid): 294.3 ± 1.2 J/K/mol; molar heat capacity at constant pressure (250 K, Crystal): 214.6 ± 0.9 J/K/mol; molar heat capacity at constant pressure (250 K, Liquid): 294.4 ± 1.3 J/K/mol; molar heat capacity at constant pressure (250.52 K, Crystal): 215.1 ± 0.9 J/K/mol; molar heat capacity at constant pressure (251.69 K, Liquid): 294.9 ± 1.2 J/K/mol; molar heat capacity at constant pressure (252.54 K, Crystal): 217.2 ± 0.9 J/K/mol; molar heat capacity at constant pressure (253.58 K, Liquid): 295.4 ± 1.2 J/K/mol; molar heat capacity at constant pressure (254.59 K, Crystal): 219.4 ± 0.9 J/K/mol; molar heat capacity at constant pressure (255.48 K, Liquid): 295.9 ± 1.2 J/K/mol; molar heat capacity at constant pressure (256.64 K, Crystal): 221.7 ± 0.9 J/K/mol; molar heat capacity at constant pressure (257.37 K, Liquid): 296.5 ± 1.2 J/K/mol; molar heat capacity at constant pressure (258.69 K, Crystal): 224.2 ± 0.9 J/K/mol; molar heat capacity at constant pressure (259.26 K, Liquid): 297.3 ± 1.2 J/K/mol; molar heat capacity at constant pressure (260 K, Crystal): 223.4 ± 1 J/K/mol; molar heat capacity at constant pressure (260 K, Liquid): 297.4 ± 1.3 J/K/mol; molar heat capacity at constant pressure (260.73 K, Crystal): 227 ± 1 J/K/mol; molar heat capacity at constant pressure (261.15 K, Liquid): 297.8 ± 1.2 J/K/mol; molar heat capacity at constant pressure (262.75 K, Crystal): 230.3 ± 1 J/K/mol; molar heat capacity at constant pressure (263.05 K, Liquid): 298.3 ± 1.2 J/K/mol; molar heat capacity at constant pressure (264.77 K, Crystal): 234 ± 1 J/K/mol; molar heat capacity at constant pressure (264.94 K, Liquid): 298.9 ± 1.2 J/K/mol; molar heat capacity at constant pressure (266.78 K, Crystal): 238.1 ± 1 J/K/mol; molar heat capacity at constant pressure (266.84 K, Liquid): 299.7 ± 1.3 J/K/mol; molar heat capacity at constant pressure (267.43 K, Liquid): 299.7 ± 1.3 J/K/mol; molar heat capacity at constant pressure (268.74 K, Liquid): 300.2 ± 1.3 J/K/mol; molar heat capacity at constant pressure (268.77 K, Crystal): 243.1 ± 1 J/K/mol; molar heat capacity at constant pressure (269.42 K, Liquid): 300.5 ± 1.3 J/K/mol; molar heat capacity at constant pressure (270 K, Crystal): 232.6 ± 1 J/K/mol; molar heat capacity at constant pressure (270 K, Liquid): 300.6 ± 1.3 J/K/mol; molar heat capacity at constant pressure (270.64 K, Liquid): 300.7 ± 1.3 J/K/mol; molar heat capacity at constant pressure (270.74 K, Crystal): 249 ± 1 J/K/mol; molar heat capacity at constant pressure (271.32 K, Liquid): 301 ± 1.3 J/K/mol; molar heat capacity at constant pressure (272.7 K, Crystal): 256.2 ± 1.1 J/K/mol; molar heat capacity at constant pressure (273.22 K, Liquid): 301.5 ± 1.3 J/K/mol; molar heat capacity at constant pressure (274.63 K, Crystal): 266.1 ± 1.1 J/K/mol; molar heat capacity at constant pressure (275.12 K, Liquid): 302.3 ± 1.3 J/K/mol; molar heat capacity at constant pressure (276.52 K, Crystal): 280.2 ± 1.2 J/K/mol; molar heat capacity at constant pressure (277.02 K, Liquid): 302.9 ± 1.3 J/K/mol; molar heat capacity at constant pressure (278.36 K, Crystal): 295.7 ± 1.3 J/K/mol; molar heat capacity at constant pressure (278.92 K, Liquid): 303.4 ± 1.3 J/K/mol; molar heat capacity at constant pressure (280 K, Crystal): 242.3 ± 1 J/K/mol; molar heat capacity at constant pressure (280 K, Liquid): 303.8 ± 1.3 J/K/mol; molar heat capacity at constant pressure (280.15 K, Crystal): 317.2 ± 1.4 J/K/mol; molar heat capacity at constant pressure (280.82 K, Liquid): 303.9 ± 1.3 J/K/mol; molar heat capacity at constant pressure (281.86 K, Crystal): 349.7 ± 1.5 J/K/mol; molar heat capacity at constant pressure (282.72 K, Liquid): 304.7 ± 1.3 J/K/mol; molar heat capacity at constant pressure (283.46 K, Crystal): 398.1 ± 1.8 J/K/mol; molar heat capacity at constant pressure (284.62 K, Liquid): 305.2 ± 1.3 J/K/mol; molar heat capacity at constant pressure (284.92 K, Crystal): 473.4 ± 2.4 J/K/mol; molar heat capacity at constant pressure (286.2 K, Crystal): 587.3 ± 3.5 J/K/mol; molar heat capacity at constant pressure (286.52 K, Liquid): 306 ± 1.3 J/K/mol; molar heat capacity at constant pressure (287.29 K, Crystal): 773.4 ± 5.6 J/K/mol; molar heat capacity at constant pressure (288.17 K, Crystal): 1041 ± 9 J/K/mol; molar heat capacity at constant pressure (288.42 K, Liquid): 306.6 ± 1.3 J/K/mol; molar heat capacity at constant pressure (288.86 K, Crystal): 1421 ± 15 J/K/mol; molar heat capacity at constant pressure (289.4 K, Crystal): 1917 ± 16 J/K/mol; molar heat capacity at constant pressure (290 K, Crystal): 252.5 ± 1.1 J/K/mol; molar heat capacity at constant pressure (290 K, Liquid): 307.1 ± 1.3 J/K/mol; molar heat capacity at constant pressure (290.32 K, Liquid): 307.1 ± 1.3 J/K/mol; molar heat capacity at constant pressure (291.92 K, Crystal): 254.5 ± 1.1 J/K/mol; molar heat capacity at constant pressure (291.92 K, Liquid): 307.8 ± 1.3 J/K/mol; molar heat capacity at constant pressure (292.23 K, Liquid): 307.9 ± 1.3 J/K/mol; molar heat capacity at constant pressure (293.86 K, Liquid): 308.4 ± 1.3 J/K/mol; molar heat capacity at constant pressure (294.13 K, Liquid): 308.4 ± 1.3 J/K/mol; molar heat capacity at constant pressure (294.32 K, Liquid): 308.7 ± 1.3 J/K/mol; molar heat capacity at constant pressure (295.68 K, Liquid): 309 ± 1.3 J/K/mol; molar heat capacity at constant pressure (296.03 K, Liquid): 309.2 ± 1.3 J/K/mol; molar heat capacity at constant pressure (296.1 K, Liquid): 309.2 ± 1.3 J/K/mol; molar heat capacity at constant pressure (297.5 K, Liquid): 309.8 ± 1.3 J/K/mol; molar heat capacity at constant pressure (297.89 K, Liquid): 309.8 ± 1.3 J/K/mol; molar heat capacity at constant pressure (297.93 K, Liquid): 309.8 ± 1.3 J/K/mol; molar heat capacity at constant pressure (298.15 K, Liquid): 309.9 ± 1.3 J/K/mol; molar heat capacity at constant pressure (299.84 K, Liquid): 310.6 ± 1.3 J/K/mol; molar heat capacity at constant pressure (300 K, Liquid): 310.5 ± 1.3 J/K/mol; molar heat capacity at constant pressure (301.74 K, Liquid): 311.1 ± 1.3 J/K/mol; molar heat capacity at constant pressure (303.65 K, Liquid): 311.9 ± 1.3 J/K/mol; molar heat capacity at constant pressure (305.55 K, Liquid): 312.4 ± 1.3 J/K/mol; molar heat capacity at constant pressure (307.45 K, Liquid): 313.2 ± 1.3 J/K/mol; molar heat capacity at constant pressure (309.36 K, Liquid): 313.8 ± 1.3 J/K/mol; molar heat capacity at constant pressure (310 K, Liquid): 314.1 ± 1.4 J/K/mol; molar heat capacity at constant pressure (311.26 K, Liquid): 314.6 ± 1.3 J/K/mol; molar heat capacity at constant pressure (313.17 K, Liquid): 315.1 ± 1.3 J/K/mol; molar heat capacity at constant pressure (315.07 K, Liquid): 315.9 ± 1.3 J/K/mol; molar heat capacity at constant pressure (316.98 K, Liquid): 316.7 ± 1.3 J/K/mol; molar heat capacity at constant pressure (318.89 K, Liquid): 317.2 ± 1.3 J/K/mol; molar heat capacity at constant pressure (320 K, Liquid): 317.6 ± 1.4 J/K/mol; molar heat capacity at constant pressure (320.79 K, Liquid): 318 ± 1.3 J/K/mol; molar heat capacity at constant pressure (322.7 K, Liquid): 318.6 ± 1.3 J/K/mol; molar heat capacity at constant pressure (324.6 K, Liquid): 319.4 ± 1.3 J/K/mol; molar heat capacity at constant pressure (326.51 K, Liquid): 320.1 ± 1.3 J/K/mol; molar heat capacity at constant pressure (328.41 K, Liquid): 320.7 ± 1.3 J/K/mol; molar heat capacity at constant pressure (330 K, Liquid): 321.3 ± 1.4 J/K/mol; molar heat capacity at constant pressure (330.32 K, Liquid): 321.5 ± 1.3 J/K/mol; molar heat capacity at constant pressure (332.22 K, Liquid): 322 ± 1.3 J/K/mol; molar heat capacity at constant pressure (334.13 K, Liquid): 322.8 ± 1.3 J/K/mol; molar heat capacity at constant pressure (336.03 K, Liquid): 323.6 ± 1.3 J/K/mol; molar heat capacity at constant pressure (337.93 K, Liquid): 324.4 ± 1.4 J/K/mol; molar heat capacity at constant pressure (339.84 K, Liquid): 324.9 ± 1.4 J/K/mol; molar heat capacity at constant pressure (340 K, Liquid): 325.1 ± 1.4 J/K/mol; molar heat capacity at constant pressure (341.74 K, Liquid): 325.7 ± 1.4 J/K/mol; molar heat capacity at constant pressure (343.65 K, Liquid): 326.5 ± 1.4 J/K/mol; molar heat capacity at constant pressure (345.55 K, Liquid): 327.3 ± 1.4 J/K/mol; molar heat capacity at constant pressure (347.47 K, Liquid): 327.9 ± 1.4 J/K/mol; molar heat capacity at constant pressure (349.37 K, Liquid): 328.7 ± 1.4 J/K/mol; molar heat capacity at constant pressure (350 K, Liquid): 328.9 ± 1.4 J/K/mol; molar heat capacity at constant pressure (351.28 K, Liquid): 329.5 ± 1.4 J/K/mol; molar heat capacity at constant pressure (353.19 K, Liquid): 330.3 ± 1.4 J/K/mol; molar heat capacity at constant pressure (355.09 K, Liquid): 330.8 ± 1.4 J/K/mol; molar heat capacity at constant pressure (357 K, Liquid): 331.6 ± 1.4 J/K/mol; molar heat capacity at constant pressure (358.91 K, Liquid): 332.4 ± 1.4 J/K/mol; molar heat capacity at constant pressure (360 K, Liquid): 332.9 ± 1.4 J/K/mol; molar heat capacity at constant pressure (360.81 K, Liquid): 333.2 ± 1.4 J/K/mol; molar heat capacity at constant pressure (362.72 K, Liquid): 334 ± 1.4 J/K/mol; molar heat capacity at constant pressure (364.62 K, Liquid): 334.8 ± 1.4 J/K/mol; molar heat capacity at constant pressure (366.52 K, Liquid): 335.3 ± 1.4 J/K/mol; molar heat capacity at constant pressure (368.43 K, Liquid): 336.4 ± 1.4 J/K/mol; molar heat capacity at constant pressure (370 K, Liquid): 336.9 ± 1.4 J/K/mol
